Experimental data as given in patent US6534514B1, “Kappa opioid receptor antagonists” (Regents of the University of Minnesota, priority 1993, dated 2003).

Tests used:
[1] = biological target: T1, delta opioid receptors (Mus musculus, UniProt P32300); assay: Mouse writhing procedure, antagonism of DADLE; type: in vivo; conditions: mice; agonist 50 nmol; antagonist 4 mg/kg sc
Description: (§1) Physiological data for guinea pig ileal longitudinal muscle (GPI) was obtained by the methodology of H. P. Rang, “Stimulant Actions of Volatile Anaesthetics on Smooth Muscle,” Brit. J. Pharmacol., 22, 356 (1964) on Dunkin-Hartley males; mouse vas deferens (MVD) data was obtained using Henderson's method on Swiss-Webster males (G. Henderson et al., “A New Example of a Morphine-Sensitive Neuroeffector Junction: Adrenergic Transmission in the Mouse vas Deferens,” Brit. J. Pharmacol., 46, 764 (1972). Guinea pig brain membrane binding assays were done on Dunkin-Hartley males using a modification of the method of L. L. Werling et al., “Opioid Binding to Rat and Guinea Pig Neural Membranes in the Presence of Physiological Cations at 37° C.,” J. Pharmacol. Exp. Ther., 233 722 (1985). In vivo assays were done s.c. on mice.
(§2) Compound δ was tested in vivo using the mouse writhing procedure of G. Hayashi et al., Eur. J. Pharmacol., 85, 163 (1982).

[2] = biological target: T2, kappa receptors (Mus musculus, UniProt P33534); assay: Mouse writhing procedure, antagonism of U50488H; type: in vivo, mice
T2 construct: tested in vivo using the mouse writhing procedure of G. Hayashi et al; from tissue; host or cells: whole mouse in vivo (s.c. dosing)
Description: as §1, §2

[3] = biological target: T1, delta opioid receptors; assay: Mouse vas deferens (MVD), antagonism of DADLE (D); type: cell-based; set-up: Both vasa deferentia were dissected out of mice and mounted singly; from tissue; host or cells: mouse vas deferens (Swiss-Webster males) for A3; whole mouse in vivo for A7; conditions: antagonist 100 nM; agonist DADLE
Method: 2. Mouse Vas Deferens (MVD). This assay was performed according to the description by G. Henderson et al., Brit. […] Both vasa deferentia were dissected out of mice and mounted singly through two platinum ring electrodes in a 10 ml organ bath. The bath contained Krebs bicarbonate solution that was continuously bubbled with 95% O2 and 5% CO2. The organ bath was maintained at 37° C. The tissue was attached to an isometric transducer and stimulated transmurally with rectangular pulses ([…], 1 ms duration, supramaximal voltage). Drugs were added cumulatively to the bath in preselected amounts and washed out after noting their maximum effects.
(§3) Concentration-response curves were obtained in the absence (control) and the presence of the antagonist are expressed as IC50 values. The IC50 ratio represents the IC50 in the presence of the antagonist divided by the control IC50 value in the same tissue. Therefore, a high IC50 ratio represents a correspondingly high degree of antagonism at a particular receptor. This IC50 ratio was employed to calculate the Ke value using the equation Ke=[antagonist]/(IC50 ratio-1). Therefore, a low Ke represents a correspondingly high degree of binding at a particular receptor.

[4] = biological target: T3, mu opioid receptors (Mus musculus, UniProt P42866); assay: Mouse writhing procedure, antagonism of morphine; type: in vivo; conditions: mice; agonist 50 nmol; antagonist 4 mg/kg sc
T3 construct: tested in vivo using the mouse writhing procedure of G. Hayashi et al; from tissue; host or cells: whole mouse in vivo (s.c. dosing)
Description: as §1, §2

[5] = biological target: T4, kappa opioid receptors (Cavia porcellus, UniProt P41144); assay: Guinea pig ileal longitudinal muscle (GPI), antagonism of ethylketazocine (EK); type: cell-based
T4 construct: a strip of longitudinal muscle with the myenteric plexus attached was prepared; from tissue; host or cells: guinea pig ileal longitudinal muscle with myenteric plexus (Dunkin-Hartley males)
Method: (§4) Physiological data for guinea pig ileal longitudinal muscle (GPI) was obtained by the methodology of H. P. Rang, “Stimulant Actions of Volatile Anaesthetics on Smooth Muscle,” Brit. […] In vivo assays were done s.c. on mice.
(§5) 1. Guinea Pig Ileal Longitudinal Muscle (GPI). Ilea from guinea pigs were taken approximately 10 cm from the ileocecal junction, and a strip of longitudinal muscle with the myenteric plexus attached was prepared by the method of […] et al., Brit. […] A 1 cm portion of this strip was then mounted between two platinum electrodes placed in a 10 ml organ bath and connected to an isometric transducer; contractions were recorded on a polygraph. Contractions of the ileal strip were initiated by supramaximal rectangular pulses in all preparations (80 V of 0.5 ms duration at a frequency of 0.1 Hz). […] The organ bath was maintained at 36°-37° C. The longitudinal muscle strip was allowed to equilibrate with continuous stimulation for a minimum of 90 min. Cumulative concentration-response curves were determined after drugs were added to the bath in preselected amounts and washed out with buffer after noting their maximum effects.
as §3

[6] = biological target: mu opioid receptors; conditions: antagonist 100 nM; agonist morphine
Method: as §4, §5, §3

T1 sequence (P32300 whole entry): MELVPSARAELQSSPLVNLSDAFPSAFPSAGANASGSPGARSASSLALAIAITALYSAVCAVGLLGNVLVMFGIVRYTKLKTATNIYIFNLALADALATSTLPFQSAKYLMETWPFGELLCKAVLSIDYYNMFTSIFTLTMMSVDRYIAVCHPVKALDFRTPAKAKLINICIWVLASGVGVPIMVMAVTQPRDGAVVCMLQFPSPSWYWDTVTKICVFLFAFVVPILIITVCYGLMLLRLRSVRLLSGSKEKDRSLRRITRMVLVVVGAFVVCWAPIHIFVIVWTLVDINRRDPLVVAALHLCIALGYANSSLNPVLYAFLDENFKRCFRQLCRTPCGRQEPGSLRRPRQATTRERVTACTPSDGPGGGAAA
T4 sequence (P41144 whole entry): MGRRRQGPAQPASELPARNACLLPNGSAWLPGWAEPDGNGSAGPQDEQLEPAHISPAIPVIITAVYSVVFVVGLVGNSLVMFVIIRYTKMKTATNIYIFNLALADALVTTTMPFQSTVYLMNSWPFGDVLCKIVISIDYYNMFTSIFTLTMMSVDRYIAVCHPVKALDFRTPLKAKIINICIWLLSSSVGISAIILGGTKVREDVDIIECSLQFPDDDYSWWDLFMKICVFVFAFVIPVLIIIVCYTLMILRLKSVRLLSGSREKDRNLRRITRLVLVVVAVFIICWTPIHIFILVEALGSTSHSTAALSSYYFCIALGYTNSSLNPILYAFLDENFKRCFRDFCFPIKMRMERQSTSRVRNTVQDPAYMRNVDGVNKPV
T2 sequence (P33534 whole entry): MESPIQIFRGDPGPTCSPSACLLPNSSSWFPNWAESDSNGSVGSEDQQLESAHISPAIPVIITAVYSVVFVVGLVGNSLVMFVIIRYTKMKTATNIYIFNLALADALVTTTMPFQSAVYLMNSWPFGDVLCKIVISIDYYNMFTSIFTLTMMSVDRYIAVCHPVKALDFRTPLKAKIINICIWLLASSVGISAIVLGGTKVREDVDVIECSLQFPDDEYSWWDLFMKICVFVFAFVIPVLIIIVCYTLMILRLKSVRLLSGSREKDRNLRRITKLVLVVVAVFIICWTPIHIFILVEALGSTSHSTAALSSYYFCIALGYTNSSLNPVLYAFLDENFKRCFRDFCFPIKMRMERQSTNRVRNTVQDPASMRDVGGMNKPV
T3 sequence (P42866 whole entry): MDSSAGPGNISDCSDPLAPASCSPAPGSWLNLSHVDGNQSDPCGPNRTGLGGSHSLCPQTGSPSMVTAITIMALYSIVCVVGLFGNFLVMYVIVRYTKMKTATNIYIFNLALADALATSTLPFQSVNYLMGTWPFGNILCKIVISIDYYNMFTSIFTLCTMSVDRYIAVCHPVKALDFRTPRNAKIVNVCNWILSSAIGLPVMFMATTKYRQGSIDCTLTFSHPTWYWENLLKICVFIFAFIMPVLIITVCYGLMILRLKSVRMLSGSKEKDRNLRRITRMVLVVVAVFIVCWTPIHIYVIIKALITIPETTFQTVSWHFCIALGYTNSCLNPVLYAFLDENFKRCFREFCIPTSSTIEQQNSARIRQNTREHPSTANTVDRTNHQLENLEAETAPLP

Substance: 17-(Cyclopropylmethyl)-6,7-dehydro-4,5α-epoxy-3,14-dihydroxy-5-[(N^2-pentanamidino)methyl]-6,7-2′,3′-indolomorphinan Dihydrochloride [Compound 6]
- ED50 ratio [(agonist + 6)/agonist control], DADLE [1]: 0.25
- ED50 ratio [(agonist + 6)/agonist control], U50488H ([2]; mice, agonist 50 nmol, antagonist 4 mg/kg sc): 3.77
- antagonist selectivity in the whole animal model ([2]; mouse writhing, 4 mg/kg sc): selective kappa antagonist
- IC50 ratio, D (MVD) [3]: 4.71 ± 1.06
- Ke, D (MVD) [3]: 26.9 nM
- ED50 ratio [(agonist + 6)/agonist control], morphine [4]: 1.63
- Selectivity κ/μ ([5]; GPI EK versus GPI morphine): 28
- Selectivity κ/δ ([5]; GPI EK versus MVD DADLE): 93
- kappa antagonist potency compared with norBNI ([5]; GPI, EK): more potent
- kappa selectivity compared with norBNI ([5]; GPI/MVD): more selective
- potency and selectivity compared with norBNI ([5]; GPI/MVD): more potent and selective
- Kb ([5]; antagonist 100 nM, 15 min incubation, agonist ethylketazocine, Ke=[antagonist]/(IC50 ratio-1)): 0.23 nM
- IC50 ratio, EK (GPI) ([5]; antagonist 100 nM, IC50 agonist + antagonist/IC50 agonist, agonist ethylketazocine): 439 ± 100
- IC50 ratio, M (GPI) [6]: 15.7 ± 4.0
- Ke, M (GPI) [6]: 6.80 nM
